Values of other authors as cited in paper PMC9248236 (Nature chemical biology, 2022).

Tested on: IR
Conditions: competition binding assays, substitution at B24 of insulin

Substance | affinity for IR lower than native PheB24 human insulin
IleB24: human insulin analog with PheB24 substituted by isoleucine (literature) | 2–3 fold
LeuB24: human insulin analog with PheB24 substituted by leucine (literature) | 2–3 fold
